Results from patent publication US11434205B2, “Substituted imidazole carboxylate derivatives and the use thereof” (priority 2018, dated 2022).
Read-outs that look alike come from different tables or passages of the source.

Experiments:
rats [1] = format: in vivo, rat; settings: for recovery time of the test animals' righting reflex: rats of the MAP/HR figures, 2×ED50, tail vein, same value in min
Protocol: The Effects of the Compounds on the Circulatory Function were Measured in Rats Using a Small Animal Implanted Physiological Signal Telemetry System
The anesthetic activity of the compounds was assessed in rats using a LORR assay and the up and down method was used to determine ED50. […] A small animal implantable physiological signal telemetry system from DSI (Data Science International, Inc.) was used to measure the changes in heart rate (HR) and blood pressure in rats during 30 min after administration. Then mean arterial pressure (MAP) and HR were used as representative indicators to determine hemodynamic stability of the compounds of the present invention in rats.
A small animal implantable physiological signal telemetry system from DSI (Data Science International, Inc.) including implants (RATHD-521, DSI, United States), receiver boards (RPC-1, DSI, United States), signal conversion devices (DEM, DSI, USA), perfusion glue (DSI, USA), fibrin membrane (DSI, USA), etc.
First, animal models were established. A left ventricular catheter, an abdominal aortic catheter and ECG wires were placed into rats. At least one week after surgery, data were recorded.
Administration procedure: rats were put into a restraint device with a 20 G indwelling catheter placed into a lateral tail vein. After administration of 0.2 mL heparin, a pre-filled extension tube was attached and taped to the tail vein to secure the extension tube. Then the rats were removed from the restraint device to a cage before placing them together on the signal receiver. […] Finally, the pharmacological effects, adverse reactions, and behavioural manifestations of the rats were observed and recorded
Data collection: After setting the data collection parameters on the software, the power of the implant was turned on to start data collection. In this experiment, data recording frequency was set to 15 s. Data collection was continuously recorded for 30 min before and after administration of the drugs in rats. After data acquisition, the test was stopped.

rats [2] = format: in vivo, rat; settings: rats of the MAP/HR figures, 2×ED50, tail vein
rats [3] = settings: for Recovery time after stopping infusion: after 1 hour infusion at 2×MIR; for Adverse reactions: Tremor (incidence): continuous infusion 2×MIR; for Onset time: emulsion, continuous infusion at 2×MIR
Protocol: Pharmacological Effects of the Compounds on Continuous Infusion in Rats
Adult male Sprague-Dawley rats with body weight ranging from 250 to 300 gm were selected for continuous infusion test. […] Time to recovery of righting reflex from stopping infusion, and time to fully awake from stopping infusion were recorded.

[4] = system: secretion of corticosterone, H295R cell line; experiment: cells; format: cell-based; settings: for EC50: Homo sapiens, NCI-H295R, read-out: EC50 (Corticosterone)
Protocol: (§1) The Effects of the Compounds on Adrenocortical Function In Vitro Test
(§2) Then secretion of the cortisol and corticosterone in the supernatant, was measured using HPLC-MS/MS method to determine whether the compounds of the present invention had adrenotoxic potential.

[5] = system: secretion of cortisol, H295R cell line; experiment: cells; format: cell-based; settings: for EC50: Homo sapiens, NCI-H295R, read-out: EC50 (Cortisol)
Protocol: as §1, §2

[6] = H295R cell line, 0.1-10000 nM, HPLC-MS/MS, Table D3
[7] = H295R cell line, 0.1-10000 nM, HPLC-MS/MS, Table E3

| Structure (SMILES) | recovery time of the test animals' righting reflex (rats [1]) | recovery time of the test animals' righting reflex (rats [2]) | EC50 [4] | EC50 [5] | also measured |
| --- | --- | --- | --- | --- | --- |
| C[C@H](c1ccccc1)n1cncc1C(=O)OCC1(CO)CC1 [Compound A7] | 1.83 min | 110 s | – | – | Recovery time after stopping infusion (rats [3]): 7 to 9 min; Adverse reactions: Tremor (incidence) (rats [3]): Tremor (4/6); Onset time (rats [3]): 2 to 3 min |
| C[C@H](c1ccccc1)n1cncc1C(=O)OCC1CC1 [Compound A15] | 3.22 min | 193 s | – | – | Recovery time after stopping infusion (rats [3]): 12 to 15 min; Adverse reactions: Tremor (incidence) (rats [3]): Tremor (5/6); Onset time (rats [3]): 2 to 3 min |
| C[C@H](c1ccccc1)n1cncc1C(=O)SCC1CCC1 [Compound A27] | 2.10 min | 126 s | – | – | – |
| COCC1(CSC(=O)c2cncn2[C@H](C)c2ccccc2)CCC1 [Compound A28] | 7.25 min | 435 s | > 1 µM | > 1 µM | Corticosterone as an indicator to determine the presence of inhibition ([4]; H295R, Table A3): 0; Cortisol as an indicator to determine the presence of inhibition ([5]; H295R, Table A3): 0 |
| C[C@H](c1ccccc1)n1cncc1C(=O)SC1CCC1 [Compound A29] | 4.25 min | 255 s | – | – | – |
| C[C@H](c1ccccc1)n1cncc1C(=O)SCC1CC(F)(F)C1 [Compound A45] | 3.33 min | 200 s | – | – | – |
| CSCC1(CSC(=O)c2cncn2[C@H](C)c2ccccc2)CCC1 [Compound A46] | – | – | > 0.1 µM | > 0.1 µM | Corticosterone as an indicator to determine the presence of inhibition ([4]; H295R, Table A3): 0; Cortisol as an indicator to determine the presence of inhibition ([5]; H295R, Table A3): 0 |
| C[C@H](c1ccccc1)n1cncc1C(=O)OC(C)(C)C1OC1(C)C (stereo partly drawn) [Compound B25] | – | – | – | > 1 µM | Corticosterone as an indicator to determine the presence of inhibition ([4]; H295R, Table B3): 0; Cortisol as an indicator to determine the presence of inhibition ([5]; H295R, Table B3): 0 |
| CC(=O)C1(OC(=O)c2cncn2[C@H](C)c2ccccc2)CCC1 [Compound C2] | 3.03 min | 182 s | – | – | – |
| CC(=O)C1(COC(=O)c2cncn2[C@H](C)c2ccccc2)CC1 [Compound C4] | – | – | > 1 µM | > 1 µM | Corticosterone as an indicator to determine the presence of inhibition ([4]; H295R, Table C3): 0; Cortisol as an indicator to determine the presence of inhibition ([5]; H295R, Table C3): 0 |
| CC(=O)C1(COC(=O)c2cncn2[C@H](C)c2ccccc2)COC1 [Compound C5] | – | – | > 1 µM | > 1 µM | Corticosterone as an indicator to determine the presence of inhibition ([4]; H295R, Table C3): 0; Cortisol as an indicator to determine the presence of inhibition ([5]; H295R, Table C3): 0 |
| CC(=O)COC(=O)c1cncn1[C@H](C)c1ccccc1 [Compound C6] | 2.0 min | 120 s | – | – | – |
| CC(=O)C(C)(C)OC(=O)c1cncn1[C@H](C)c1ccccc1 [Compound C8] | 2.83 min | 170 s | – | – | – |
| C[C@H](c1ccccc1)n1cncc1C(=O)OC[S+](C)[O-] (stereo partly drawn) [Compound C9] | – | – | > 10 µM | > 10 µM | Corticosterone as an indicator to determine the presence of inhibition ([4]; H295R, Table C3): 0; Cortisol as an indicator to determine the presence of inhibition ([5]; H295R, Table C3): 0 |
| C[C@H](c1ccccc1)n1cncc1C(=O)OCC[S+](C)[O-] (stereo partly drawn) [Compound C10] | – | – | > 10 µM | > 10 µM | Corticosterone as an indicator to determine the presence of inhibition ([4]; H295R, Table C3): 0; Cortisol as an indicator to determine the presence of inhibition ([5]; H295R, Table C3): 0 |
| CC(=O)C1(COC(=O)c2cncn2[C@H](C)c2ccccc2)CCC1 [Compound C11] | – | – | > 1 µM | > 1 µM | Corticosterone as an indicator to determine the presence of inhibition ([4]; H295R, Table C3): 0; Cortisol as an indicator to determine the presence of inhibition ([5]; H295R, Table C3): 0 |

| Structure (SMILES) | recovery time of the test animals' righting reflex (rats [1]) | recovery time of the test animals' righting reflex (rats [2]) | EC50 [4] | EC50 [5] | also measured |
| --- | --- | --- | --- | --- | --- |
| C[C@H](c1ccccc1)n1cncc1C(=O)OCC1(C=O)COC1 [Compound C12] | – | – | > 1 µM | > 1 µM | Corticosterone as an indicator to determine the presence of inhibition ([4]; H295R, Table C3): 0; Cortisol as an indicator to determine the presence of inhibition ([5]; H295R, Table C3): 0 |
| CC(=O)CC(C)(C)OC(=O)c1cncn1[C@H](C)c1ccccc1 [Compound C13] | – | – | > 10 µM | > 10 µM | Corticosterone as an indicator to determine the presence of inhibition ([4]; H295R, Table C3): 0; Cortisol as an indicator to determine the presence of inhibition ([5]; H295R, Table C3): 0 |
| CC(=O)C(C)(C)SC(=O)c1cncn1[C@H](C)c1ccccc1 [Compound C22] | 1.55 min | 93 s | – | – | – |
| CC(=O)CCSC(=O)c1cncn1[C@H](C)c1ccccc1 [Compound C23] | 3.43 min | 206 s | – | – | – |
| C=C(OCC)C1(OC(=O)c2cncn2[C@H](C)c2ccccc2)COC1 [Compound D2] | 5.92 min | 355 s | > 1 µM | > 1 µM | Corticosterone as an indicator to determine the presence of inhibition [4, 6]: 0; Cortisol as an indicator to determine the presence of inhibition [5, 6]: 0 |
| C/C=C/C1(OC(=O)c2cncn2[C@H](C)c2ccccc2)CCC1 [Compound D20] | – | – | > 10 µM | > 10 µM | Corticosterone as an indicator to determine the presence of inhibition [4, 6]: 0; Cortisol as an indicator to determine the presence of inhibition [5, 6]: 0 |
| C=CC1(OC(=O)c2cncn2[C@H](C)c2ccccc2)CCCCC1 [Compound D35] | 3.33 min | 200 s | > 1 µM | > 1 µM | Corticosterone as an indicator to determine the presence of inhibition [4, 6]: 0; Cortisol as an indicator to determine the presence of inhibition [5, 6]: 0 |
| C=CCC1(OC(=O)c2cncn2[C@H](C)c2ccccc2)COC1 [Compound D41] | 5.92 min | 355 s | > 10 µM | > 10 µM | Corticosterone as an indicator to determine the presence of inhibition [4, 6]: 0; Cortisol as an indicator to determine the presence of inhibition [5, 6]: 0 |
| C[C@H](c1ccccc1)n1cnc(F)c1C(=O)OC1(C=C=S)CCCCC1 [Compound E23] | 1.53 min | 92 s | – | – | – |
| COCC1(COC(=O)c2c(Cl)ncn2[C@H](C)c2ccccc2)CCC1 [Compound E102] | 4.80 min | 288 s | > 10 µM | > 10 µM | Corticosterone as an indicator to determine the presence of inhibition [4, 7]: 0; Cortisol as an indicator to determine the presence of inhibition [5, 7]: 0 |
| C=CC#CC(C)OC(=O)c1c(Cl)ncn1[C@H](C)c1ccccc1 (stereo partly drawn) [Compound E121] | 3.07 min | 184 s | – | – | – |
| C/C(OC(=O)c1c(Cl)nc(Cl)n1[C@H](C)c1ccccc1)=C1\CCCC1=O [Compound E146] | 3.35 min | 201 s | > 10 µM | > 10 µM | Corticosterone as an indicator to determine the presence of inhibition [4, 7]: 0; Cortisol as an indicator to determine the presence of inhibition [5, 7]: 0 |
| COCC1(COC(=O)c2c(C(F)(F)F)ncn2[C@H](C)c2ccccc2)CCC1 [Compound E157] | 3.03 min | 182 s | > 10 µM | > 10 µM | Corticosterone as an indicator to determine the presence of inhibition [4, 7]: 0; Cortisol as an indicator to determine the presence of inhibition [5, 7]: 0 |
| CC(=O)C(C)(C)OC(=O)c1c(C(F)(F)F)ncn1[C@H](C)c1ccccc1 [Compound E160] | 1.08 min | 65 s | > 10 µM | > 10 µM | Corticosterone as an indicator to determine the presence of inhibition [4, 7]: 0; Cortisol as an indicator to determine the presence of inhibition [5, 7]: 0 |
| CC#CCOC(=O)c1c(C(F)(F)F)ncn1[C@H](C)c1ccccc1 [Compound E161] | 2.33 min | 140 s | > 10 µM | > 10 µM | Corticosterone as an indicator to determine the presence of inhibition [4, 7]: 0; Cortisol as an indicator to determine the presence of inhibition [5, 7]: 0 |
| CC(C)c1cccc(C(C)C)c1O [propofol, reference compound] | 10.75 min | 645 s | – | – | effect on the circulatory function (MAP, HR) (rats [1]; rats, 2×ED50, 30 min after administration): significant inhibition of the circulatory function |
